Source: ChEMBL document CHEMBL1201862, “PubChem BioAssay data set” (2004)
The source made the active and inactive calls.

Columns and labels:
[1] = molecular target: Voltage-dependent T-type calcium channel subunit alpha-1H (Homo sapiens, UniProt O95180); format: functional;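 also: channel activity triggered by adding a high calcium stimulation buffer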
Streptococcus = assay: Group A Streptococcus viability loss, dose response, counter-screen for streptokinase expression inhibitor project, luminescence, BacTiterGlo (AID 1915); format: functional, organism-based;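 also: potency for reduction of bacterial viability or growth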
Streptokinase A = molecular target: T1, Streptokinase A (Streptococcus pyogenes serotype M1, UniProt P10520); assay: S. pyogenes streptokinase expression inhibitors, potency, dose response, plasminogen activation absorbance, OD405 (AID 1914); format: functional, Streptococcus pyogenes M1 GAS;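 also: secreted streptokinase activity via plasminogen activation per viability signal from cell pellet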
T1 sequence (P10520 whole entry): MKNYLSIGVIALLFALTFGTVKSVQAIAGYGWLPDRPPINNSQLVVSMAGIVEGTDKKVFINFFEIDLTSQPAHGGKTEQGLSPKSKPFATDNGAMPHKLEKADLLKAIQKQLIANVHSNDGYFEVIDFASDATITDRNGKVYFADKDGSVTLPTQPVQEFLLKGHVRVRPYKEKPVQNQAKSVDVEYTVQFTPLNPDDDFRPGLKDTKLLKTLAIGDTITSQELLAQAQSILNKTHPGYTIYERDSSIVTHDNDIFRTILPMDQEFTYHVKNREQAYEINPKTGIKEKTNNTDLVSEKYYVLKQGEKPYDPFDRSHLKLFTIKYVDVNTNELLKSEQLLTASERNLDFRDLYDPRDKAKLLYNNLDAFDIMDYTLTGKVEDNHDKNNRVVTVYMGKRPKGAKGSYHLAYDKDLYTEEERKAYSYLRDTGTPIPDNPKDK

Cytochrome P450 2C19 = Cytochrome P450 2C19 (Homo sapiens, UniProt P33261); assay: Cytochrome panel assay with activity outcomes. Panel member name: p450-cyp2c19 Compounds with AC50 equal or less than 10 uM are considered active; format: functional; conditions: read-out: AC50
Cytochrome P450 2C9 = Cytochrome P450 2C9 (Homo sapiens, UniProt P11712)
[2] = Luminescence Cell-Based Dose Retest to Confirm Inhibitors of Cancer Stem Cells. [Related pubchem assays (depositor defined):AID2717, AID2721]; format: functional; conditions: Homo sapiens
Cytochrome P450 1A2 = molecular target: T2, Cytochrome P450 1A2 (Homo sapiens, UniProt P05177);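 also: PubChem cytochrome P450 panel assay, CYP1A2 panel member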
T2 sequence (P05177 whole entry): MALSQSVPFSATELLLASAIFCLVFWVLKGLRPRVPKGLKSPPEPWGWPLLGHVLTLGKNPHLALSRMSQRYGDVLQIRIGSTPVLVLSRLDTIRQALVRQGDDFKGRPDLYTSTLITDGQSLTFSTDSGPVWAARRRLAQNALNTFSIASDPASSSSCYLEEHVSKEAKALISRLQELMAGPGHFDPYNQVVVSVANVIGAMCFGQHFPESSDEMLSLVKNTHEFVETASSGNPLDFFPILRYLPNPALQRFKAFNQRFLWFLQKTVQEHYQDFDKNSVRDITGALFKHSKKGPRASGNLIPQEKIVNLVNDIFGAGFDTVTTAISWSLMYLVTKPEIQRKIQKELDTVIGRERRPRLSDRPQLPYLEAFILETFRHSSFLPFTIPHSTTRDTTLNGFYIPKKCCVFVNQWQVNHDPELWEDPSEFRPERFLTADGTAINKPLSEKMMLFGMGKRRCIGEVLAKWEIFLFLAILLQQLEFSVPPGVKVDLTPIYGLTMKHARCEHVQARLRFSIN

[3] = tested on: Streptococcus sp. 'group A'; assay: growth inhibition of control SK(-) GAS strain, dose response, counter-screen for streptokinase expression inhibitor project, luminescence, kanamycin, BacTiterGlo, confirmation (AID 1900); format: functional, organism-based
[4] = cytotoxicity in KRAS-transformed pancreatic duct cells, primary screen, cell-based, fluorescence, HTS (AID 431); format: functional; conditions: Homo sapiens;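 also: cell line used: HPDE-C7K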
[5] = cytotoxicity in HPDE-C7 cells, cell-based, fluorescence, HTS (AID 430); format: functional; conditions: Homo sapiens
[6] = growth suppression of beta-catenin-knockout colon cells, dose response, cell-based, HCT116, human colon tumor (AID 1045); format: functional;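 also: HCT116 colon tumor cells with beta catenin knocked out; cells exposed to compound for 60 hours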
[7] = growth suppression of PTEN-null colon cells, dose response, cell-based, HCT116 PTEN knockout (AID 1047); format: functional;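 also: HCT116 colon tumor cells with PTEN knocked out; cells exposed to compound for 60 hours before readout; potency for loss of cell viability measured by luminescence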
[8] = molecular target: T3, Endoribonuclease toxin MazF (Escherichia coli K-12, UniProt P0AE70); assay: MazF toxin RNase activators, dose response, biochemical, fluorescence, single-stranded RNA substrate, uHTS hits (AID 588481); format: functional
T3 sequence (P0AE70 whole entry): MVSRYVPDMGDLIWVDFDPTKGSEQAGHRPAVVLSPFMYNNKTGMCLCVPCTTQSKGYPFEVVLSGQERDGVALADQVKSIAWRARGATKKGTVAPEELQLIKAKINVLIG

[9] = molecular target: T3, Endoribonuclease toxin MazF; assay: fluorescent RNA oligo signal without MazF, dose response, counter-screen for MazEF activator project, biochemical, fluorescence, single-stranded RNase substrate (AID 588502); format: functional
H4 = assay: Luminescence Cell-Based Dose Response HTS to Identify Activators of 5'UTR Stem-Loop Driven Prion Protein mRNA Translation in H4 Neuroglioblastoma Cells. [Related pubchem assays: 1829 (Project Summary), 1814 (Primary HTS)]; format: functional; conditions: Homo sapiens
[10] = Luminescence Cell-Based Dose Response HTS to Identify Activators of Luciferase Translation or Activity in H4 […] Cells. [Related pubchem assays: 1829 (Project Summary), 1814 (Primary HTS)]; format: functional
[11] = Luminescence Cell-Based Dose Confirmation HTS to Identify Activators of 5'UTR Stem-Loop Driven Alpha-Synuclein mRNA Translation in H4 Neuroglioblastoma Cells. [Related pubchem assays: 1829 (Project Summary), 1814 (Primary HTS)]; format: functional
[12] = cytotoxicity in HEK-293T cells, dose response, cytotoxicity control for TCR NF-kB inhibitor project, luminescence, T-cell screen hits (AID 489026); format: functional, cell-based;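 also: cells exposed to compound about 14 hours before the viability readout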
[13] = molecular target: Induced myeloid leukemia cell differentiation protein Mcl-1 (Homo sapiens, UniProt Q07820); format: functional
Genome polyprotein = Genome polyprotein (dengue virus type 2, UniProt P29990); assay: Dengue-2 NS5 methyltransferase inhibitors, primary screen, biochemical, confirmation dose response (AID 588689); format: functional
Cytochrome P450 3A4 = Cytochrome P450 3A4 (Homo sapiens, UniProt P08684);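 also: CYP3A4 tested as one member of a cytochrome P450 panel screen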
Cytochrome P450 3A4, sequence (P08684 whole entry): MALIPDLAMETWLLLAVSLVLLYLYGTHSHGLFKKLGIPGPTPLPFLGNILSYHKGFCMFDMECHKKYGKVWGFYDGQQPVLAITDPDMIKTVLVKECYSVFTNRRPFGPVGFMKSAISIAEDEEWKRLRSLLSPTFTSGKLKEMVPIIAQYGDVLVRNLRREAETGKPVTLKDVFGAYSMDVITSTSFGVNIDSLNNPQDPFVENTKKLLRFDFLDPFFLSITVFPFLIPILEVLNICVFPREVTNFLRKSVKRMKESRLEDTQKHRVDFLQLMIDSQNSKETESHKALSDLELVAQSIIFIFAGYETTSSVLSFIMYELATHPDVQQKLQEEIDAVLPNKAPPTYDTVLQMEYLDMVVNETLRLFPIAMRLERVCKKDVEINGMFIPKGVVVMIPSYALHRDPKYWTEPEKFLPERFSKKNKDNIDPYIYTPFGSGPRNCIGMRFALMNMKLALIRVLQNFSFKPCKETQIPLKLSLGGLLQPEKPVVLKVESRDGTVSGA

Cytochrome P450 2C9, sequence (P11712 whole entry): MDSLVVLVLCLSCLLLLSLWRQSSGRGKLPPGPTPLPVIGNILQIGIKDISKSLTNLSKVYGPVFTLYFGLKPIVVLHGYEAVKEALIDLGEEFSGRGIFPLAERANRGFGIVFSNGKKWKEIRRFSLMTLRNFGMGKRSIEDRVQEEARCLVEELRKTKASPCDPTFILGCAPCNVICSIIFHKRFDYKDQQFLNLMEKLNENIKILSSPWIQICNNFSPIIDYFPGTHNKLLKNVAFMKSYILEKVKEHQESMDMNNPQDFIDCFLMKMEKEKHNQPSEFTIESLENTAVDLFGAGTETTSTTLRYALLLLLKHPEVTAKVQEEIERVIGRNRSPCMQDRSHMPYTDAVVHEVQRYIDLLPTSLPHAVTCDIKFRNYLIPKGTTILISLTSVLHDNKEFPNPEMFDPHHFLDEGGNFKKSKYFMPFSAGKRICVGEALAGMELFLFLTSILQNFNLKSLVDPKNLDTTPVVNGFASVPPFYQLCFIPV
Voltage-dependent T-type calcium channel subunit alpha-1H, sequence (O95180 whole entry): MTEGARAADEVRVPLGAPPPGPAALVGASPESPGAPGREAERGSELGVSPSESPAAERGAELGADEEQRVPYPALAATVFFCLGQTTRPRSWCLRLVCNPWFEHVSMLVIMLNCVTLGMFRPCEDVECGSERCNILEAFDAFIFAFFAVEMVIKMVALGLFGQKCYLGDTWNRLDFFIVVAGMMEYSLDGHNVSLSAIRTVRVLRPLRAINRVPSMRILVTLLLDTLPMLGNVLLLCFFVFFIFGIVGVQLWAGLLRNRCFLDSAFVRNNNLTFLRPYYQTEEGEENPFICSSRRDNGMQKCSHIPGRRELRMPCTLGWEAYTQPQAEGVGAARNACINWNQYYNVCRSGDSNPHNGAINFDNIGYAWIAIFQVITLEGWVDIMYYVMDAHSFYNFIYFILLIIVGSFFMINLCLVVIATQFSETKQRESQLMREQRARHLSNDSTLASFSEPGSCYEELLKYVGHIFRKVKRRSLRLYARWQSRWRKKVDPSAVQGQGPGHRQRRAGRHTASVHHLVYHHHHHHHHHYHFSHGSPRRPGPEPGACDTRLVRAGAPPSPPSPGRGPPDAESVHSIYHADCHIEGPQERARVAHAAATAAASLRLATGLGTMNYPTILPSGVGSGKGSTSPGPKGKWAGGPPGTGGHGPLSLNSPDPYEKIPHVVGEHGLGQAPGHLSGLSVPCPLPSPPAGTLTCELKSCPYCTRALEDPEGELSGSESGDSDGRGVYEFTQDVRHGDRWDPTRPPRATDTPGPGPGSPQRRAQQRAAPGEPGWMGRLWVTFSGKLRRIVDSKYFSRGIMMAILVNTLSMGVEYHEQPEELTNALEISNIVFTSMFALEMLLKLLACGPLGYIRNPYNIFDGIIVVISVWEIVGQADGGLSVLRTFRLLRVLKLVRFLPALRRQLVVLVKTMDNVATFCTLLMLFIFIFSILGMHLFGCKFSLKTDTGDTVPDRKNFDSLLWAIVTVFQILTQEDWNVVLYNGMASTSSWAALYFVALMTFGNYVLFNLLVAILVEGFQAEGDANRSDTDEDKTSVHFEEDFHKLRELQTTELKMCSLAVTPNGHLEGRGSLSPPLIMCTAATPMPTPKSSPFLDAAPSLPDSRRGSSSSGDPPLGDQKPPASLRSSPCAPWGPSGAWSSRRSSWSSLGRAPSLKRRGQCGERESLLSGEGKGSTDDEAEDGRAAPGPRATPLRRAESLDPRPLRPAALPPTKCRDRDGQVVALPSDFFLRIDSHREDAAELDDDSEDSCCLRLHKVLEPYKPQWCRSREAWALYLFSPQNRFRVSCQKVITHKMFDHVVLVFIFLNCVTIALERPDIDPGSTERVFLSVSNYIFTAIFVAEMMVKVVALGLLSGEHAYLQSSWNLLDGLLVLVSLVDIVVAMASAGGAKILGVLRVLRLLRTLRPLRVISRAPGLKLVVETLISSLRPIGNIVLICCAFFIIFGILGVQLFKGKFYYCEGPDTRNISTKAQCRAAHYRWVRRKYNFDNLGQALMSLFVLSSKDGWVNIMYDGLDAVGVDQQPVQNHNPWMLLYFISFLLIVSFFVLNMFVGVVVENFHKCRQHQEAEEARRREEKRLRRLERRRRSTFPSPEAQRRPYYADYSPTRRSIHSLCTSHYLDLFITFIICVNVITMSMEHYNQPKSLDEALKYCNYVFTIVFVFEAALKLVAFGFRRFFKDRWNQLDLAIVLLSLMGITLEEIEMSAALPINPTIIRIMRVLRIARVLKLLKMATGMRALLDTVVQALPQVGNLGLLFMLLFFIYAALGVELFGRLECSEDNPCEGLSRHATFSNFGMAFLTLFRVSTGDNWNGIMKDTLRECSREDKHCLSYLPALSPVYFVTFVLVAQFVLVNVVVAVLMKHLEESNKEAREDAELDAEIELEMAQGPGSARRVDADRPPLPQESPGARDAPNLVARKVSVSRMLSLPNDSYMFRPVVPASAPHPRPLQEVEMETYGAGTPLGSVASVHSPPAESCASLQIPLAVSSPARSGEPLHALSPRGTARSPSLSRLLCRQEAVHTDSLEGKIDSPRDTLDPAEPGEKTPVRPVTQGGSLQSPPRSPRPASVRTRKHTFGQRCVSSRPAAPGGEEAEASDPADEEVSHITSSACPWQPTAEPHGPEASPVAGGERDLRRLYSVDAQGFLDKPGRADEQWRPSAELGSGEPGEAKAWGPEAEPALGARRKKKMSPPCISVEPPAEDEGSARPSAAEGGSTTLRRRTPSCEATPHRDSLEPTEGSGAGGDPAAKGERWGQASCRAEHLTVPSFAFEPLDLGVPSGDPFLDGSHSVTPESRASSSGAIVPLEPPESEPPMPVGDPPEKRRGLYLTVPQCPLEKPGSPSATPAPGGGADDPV
Genome polyprotein, sequence (P29990 2492-3391 limits assumed): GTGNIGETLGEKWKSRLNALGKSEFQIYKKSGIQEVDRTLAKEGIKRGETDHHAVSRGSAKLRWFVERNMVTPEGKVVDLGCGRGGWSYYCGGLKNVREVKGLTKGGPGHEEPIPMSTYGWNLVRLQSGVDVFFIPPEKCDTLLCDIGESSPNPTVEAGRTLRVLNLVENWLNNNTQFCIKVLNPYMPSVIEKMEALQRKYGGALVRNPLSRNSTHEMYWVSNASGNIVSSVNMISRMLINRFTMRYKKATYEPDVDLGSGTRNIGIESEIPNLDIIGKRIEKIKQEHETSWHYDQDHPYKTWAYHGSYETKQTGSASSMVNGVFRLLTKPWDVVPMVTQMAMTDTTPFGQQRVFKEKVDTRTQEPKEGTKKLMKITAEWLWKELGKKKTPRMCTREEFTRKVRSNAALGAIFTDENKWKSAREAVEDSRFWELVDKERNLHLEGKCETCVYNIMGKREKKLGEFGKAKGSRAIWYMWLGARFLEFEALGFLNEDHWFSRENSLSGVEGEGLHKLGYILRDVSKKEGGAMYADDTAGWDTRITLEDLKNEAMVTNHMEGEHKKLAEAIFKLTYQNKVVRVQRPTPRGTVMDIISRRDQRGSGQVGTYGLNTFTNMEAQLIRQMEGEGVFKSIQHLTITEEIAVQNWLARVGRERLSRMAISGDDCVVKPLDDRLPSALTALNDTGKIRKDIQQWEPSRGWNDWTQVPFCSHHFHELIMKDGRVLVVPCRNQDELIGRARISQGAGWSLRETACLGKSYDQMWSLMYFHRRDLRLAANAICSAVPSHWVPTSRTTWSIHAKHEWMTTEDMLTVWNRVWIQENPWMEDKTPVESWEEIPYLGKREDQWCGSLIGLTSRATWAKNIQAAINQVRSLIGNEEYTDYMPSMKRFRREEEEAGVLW
Induced myeloid leukemia cell differentiation protein Mcl-1, sequence (Q07820 whole entry): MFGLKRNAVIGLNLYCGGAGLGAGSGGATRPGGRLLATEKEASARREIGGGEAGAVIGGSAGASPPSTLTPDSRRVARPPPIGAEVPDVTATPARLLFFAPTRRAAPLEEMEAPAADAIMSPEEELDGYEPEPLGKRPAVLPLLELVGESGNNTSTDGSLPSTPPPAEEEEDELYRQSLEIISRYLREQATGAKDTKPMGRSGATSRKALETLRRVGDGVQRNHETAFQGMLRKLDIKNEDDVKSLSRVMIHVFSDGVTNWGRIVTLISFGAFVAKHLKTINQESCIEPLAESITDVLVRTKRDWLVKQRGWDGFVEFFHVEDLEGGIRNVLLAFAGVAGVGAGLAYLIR
Cytochrome P450 2C19, sequence (P33261 whole entry): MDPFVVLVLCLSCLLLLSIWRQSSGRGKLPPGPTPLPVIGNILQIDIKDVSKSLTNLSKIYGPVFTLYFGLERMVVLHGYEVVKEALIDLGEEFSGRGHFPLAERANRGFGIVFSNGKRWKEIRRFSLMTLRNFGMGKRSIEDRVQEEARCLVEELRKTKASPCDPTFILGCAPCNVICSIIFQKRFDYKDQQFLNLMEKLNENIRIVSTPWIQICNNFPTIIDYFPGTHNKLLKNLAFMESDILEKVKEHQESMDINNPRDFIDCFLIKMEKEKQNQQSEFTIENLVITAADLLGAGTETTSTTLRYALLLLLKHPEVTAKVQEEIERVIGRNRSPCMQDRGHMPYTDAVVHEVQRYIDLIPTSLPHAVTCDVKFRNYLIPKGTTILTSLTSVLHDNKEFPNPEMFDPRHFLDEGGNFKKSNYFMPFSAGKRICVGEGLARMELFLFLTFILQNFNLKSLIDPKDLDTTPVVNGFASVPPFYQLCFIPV

O=C(Nc1ccc2c(c1)CCC2)c1cccc(S(=O)(=O)N2CCN(c3ccccc3)CC2)c1
EC50 [1]: 6.08 µM (active)

CCNc1nc(Oc2c(Cl)cccc2Cl)cc(C(F)(F)F)n1
EC50 (Streptococcus): > 150 µM (not active)
EC50 (Streptokinase A): 17.6 µM (active)
AC50 (Cytochrome P450 2C19): 2 µM (inconclusive)
AC50 (Cytochrome P450 2C9): inconclusive
AC50 [2]: 8.17 µM (active)
AC50 (Cytochrome P450 1A2): 14.1 µM (inconclusive)
EC50 [3]: 7.68 µM (active)

CCC(Sc1nc2cc3c(cc2c(=O)n1Cc1ccco1)OCO3)C(=O)Nc1cccc(OC)c1 (stereo unspecified)
EC50 [4]: 4.17 µM (active)
EC50 [5]: 4.41 µM (active)
EC50 [6]: 3.68 µM (active)
EC50 [7]: 3.73 µM (active)
AC50 (Cytochrome P450 1A2): 4.47 µM (inconclusive)

NNS(=O)(=O)c1ccc(N2CCCC2=O)c([N+](=O)[O-])c1
EC50 [8]: 82 µM (inactive)
EC50 [9]: > 99 µM (inactive)

Cc1nc2ccc(C(=O)OCc3ccccc3Br)cc2nc1C
EC50 [8]: > 99 µM (inactive)
EC50 (H4): 0.281 µM (active)
EC50 [10]: 66.7 µM (active)
EC50 [9]: > 99 µM (inactive)
EC50 [11]: 10.8 µM (active)

Cc1ccc(-c2nc3ccccn3c2NCc2ccc3c(c2)OCO3)cc1
EC50 [1]: 12.8 µM (active)

Cc1cccc(OCCNC(=O)c2ccc(Cl)c(S(=O)(=O)NCc3cccnc3)c2)c1
IC50 [12]: > 80 µM (inactive)

CC(=O)Nc1sc(N/N=C/c2ccc(O)cc2)nc1-c1ccc(C)cc1
IC50 [13]: 2.84 µM (active)

Cc1ccc(S(=O)(=O)N(CC(=O)N/N=C\c2cccs2)c2cccc3cccnc23)cc1
EC50 [8]: > 99 µM (inactive)
EC50 [9]: > 99 µM (inactive)

Nc1scc2c(C(=O)O)nn(-c3ccccc3)c(=O)c12
IC50 (Genome polyprotein): 45 µM (active)

COc1cc(N)c(Cl)cc1C(=O)NC1CCN(Cc2ccccc2)CC1 [CLEBOPRIDE]
AC50 (Cytochrome P450 2C9): inconclusive
AC50 (Cytochrome P450 3A4): 3.16 µM (inconclusive)
AC50 (Cytochrome P450 1A2): 12.6 µM (inconclusive)

COc1ccc2c(c1O)-c1c(OC)c(OC)cc3c1[C@H](C2)N(C)CC3 [ISOCORYDINE]
AC50 (Cytochrome P450 2C9): inconclusive
AC50 (Cytochrome P450 1A2): 10 µM (inconclusive)
